Test results published in US20220235032A1 (GENFLEET THERAPEUTICS (SHANGHAI) INC., priority 2019, published 2022).

Test system: U937 cells
Experiment: Inhibitory activity against programmed necroptosis of U937 cells induced by TNF-α and Q-VD-Oph (CellTiter-Glo)
Assay type: cell-based
Details: Homo sapiens, U-937, 48 h, Celltiter-Glo survival rate
Procedure: The U937 cell strain which was used in the following Testing Examples was derived from ATCC, No.: CRL-1593.2, batch No.: 63479999, culture medium: RPMI-1640+10% FBS.
The compound to be tested was dissolved in DMSO, and diluted with DMSO to a series of gradient concentrations. The U937 cells were inoculated in a 384-well plate at 5000/well. The compound at respective concentration was added to each of the wells, and was mixed with the cells homogeneously. Human TNF-α and Q-VD-Oph were added simultaneously to induce programmed necroptosis of the cells. The cells were placed in the incubator at 37° C. and 5% CO2 for further culture of 48 h. Celltiter-Glo reagent was used for detection. After adequate pyrolysis reaction, the chemiluminescence readout value was recorded by a microplate reader. The survival rate was calculated from the detection results using the equation as follows: SR (%)=(RLU compound−RLU blank)/(RLU high control−RLU blank)×100%. The survival rate was plotted against the final concentration of respective compound using a 4-parameter fitting to calculate the inhibitory C50 of the compound against programmed necroptosis of cells induced by TNF-α.

In order of rising IC50:
1. COc1nccc(N2CCC(C(=O)N3N=CCC3c3ccccc3)C3(CC3)C2)n1 (racemic) [Compound Z-41-1, (5-(2-methoxypyrimidin-4-yl)-5-aza-spiro[2.5]oct-8-yl)(5-phenyl-4,5-dihydro-1H-pyrazol-1-yl) ketone]  5 nM
2. N#Cc1cc(N2CCC(C(=O)N3N=CCC3c3ccccc3)C3(CC3)C2)ncn1 (racemic) [Compound Z-60-2, 6-(8-(5-phenyl-4,5-dihydro-1H-pyrazole-1-carbonyl)-5-aza-spiro[2.5]oct-5-yl)pyrimidine-4-carbonitrile]  7 nM
3. N#Cc1cc(N2CCC(C(=O)N3N=CCC3c3cc(F)cc(F)c3)CC23CC3)ncn1 (stereo not shown) [Compound Z-62, 6-(7-(5-(3,5-difluorophenyl)-4,5-dihydro-1H-pyrazole-1-carbonyl)-4-aza-spiro[2.5]oct-4-yl)pyrimidine-4-carbonitrile]  7 nM
4. COc1cc(N2CCC(C(=O)N3N=CCC3c3ccccc3)C3(CC3)C2)ncn1 (racemic) [Compound Z-40-1, (5-(6-methoxypyrimidin-4-yl)-5-aza-spiro[2.5]oct-8-yl)(5-phenyl-4,5-dihydro-1H-pyrazol-1-yl) ketone]  9 nM
5. NC(=O)c1cc(N2CCC(C(=O)N3N=CCC3c3cc(F)cc(F)c3)CC23CC3)ncn1 (racemic) [Compound Z-64-a, 6-(7-(5-(3,5-difluorophenyl)-4,5-dihydro-1H-pyrazole-1-carbonyl)-4-aza-spiro[2.5]oct-4-yl)pyrimidine-4-carboxamide]  10 nM
6. NC(=O)c1cc(N2CCC(C(=O)N3N=CCC3c3cc(F)cc(F)c3)C3(CC3)C2)ncn1 (racemic) [Compound Z-44-2, 6-(8-(5-(3,5-difluorophenyl)-4,5-dihydro-1H-pyrazole-1-carbonyl)-5-aza-spiro[2.5]oct-5-yl)pyrimidine-4-carboxamide]  22 nM
7. N#Cc1cc(N2CCC(C(=O)N3N=CCC3c3cncc(F)c3)CC23CC3)ncn1 (stereo not shown) [Compound Z-65, 6-(7-(5-(5-fluoropyridin-3-yl)-4,5-dihydro-1H-pyrazole-1-carbonyl)-4-aza-spiro[2.5]oct-4-yl)pyrimidine-4-carbonitrile]  52 nM
8. NC(=O)c1ccnc(N2CC3CC(C(=O)N4N=CCC4c4cc(F)ccc4F)CC3C2)n1 (stereo not shown) [Compound Z-22, 2-(5-(5-(2,5-difluorophenyl)-4,5-dihydro-1H-pyrazole-1-carbonyl)hexahydrocyclopenta [c]pyrrol-2(1H)-yl)pyrimidine-4-carboxamide]  70 nM
9. CN(C)C(=O)c1cc(N2CC[C@H](C(=O)N3N=CC[C@H]3c3cc(F)cc(F)c3)CC23CC3)ncn1 (racemic) [Compound Z-69, 6-((S)-7-((S)-5-(3,5-difluorophenyl)-4,5-dihydro-1H-pyrazole-1-carbonyl)-4-aza-spiro[2.5]oct-4-yl)-N,N-dimethylpyrimidine-4-carboxamide]  127 nM
10. N#Cc1ccnc(N2CC3CC(C(=O)N4N=CCC4c4cc(F)ccc4F)CC3C2)n1 (stereo not shown) [Compound Z-24, 2-(5-(5-(2,5-difluorophenyl)-4,5-dihydro-1H-pyrazole-1-carbonyl)hexahydrocyclopenta[c]pyrrol-2(1H)-yl)pyrimidine-4-carbonitrile]  181 nM
11. NC(=O)c1cc(N2CCC(C(=O)N3N=CCC3c3cncc(F)c3)C3(CC3)C2)ncn1 (racemic) [Compound Z-49-1, 6-(8-(5-(5-fluoropyridin-3-yl)-4,5-dihydro-1H-pyrazole-1-carbonyl)-5-aza-spiro[2.5]oct-5-yl)pyrimidine-4-carboxamide]  279 nM
12. N#Cc1ccnc(N2CC3CC(C(=O)N4N=CCC4c4cncc(F)c4)CC3C2)n1 (stereo not shown) [Compound Z-31, 2-(5-(5-(5-fluoropyridin-3-yl)-4,5-dihydro-1H-pyrazole-1-carbonyl)hexahydrocyclopenta[c]pyrrol-2(1H)-yl)pyrimidine-4-carbonitrile]  408 nM
13. Nc1nc(N2CC3CC(C(=O)N4N=CCC4c4cncc(F)c4)CC3C2)ncc1F (stereo not shown) [Compound Z-30, (2-(4-amino-5-fluoropyrimidin-2-yl)octahydrocyclopenta[c]pyrrol-5-yl)(5-(5-fluoropyridin-3-yl)-4,5-dihydro-1H-pyrazol-1-yl) ketone]  449 nM

Same assay, conditions: human TNF-α + Q-VD-Oph induced necroptosis, 48 h, Celltiter-Glo survival rate

In order of rising IC50:
1. N#Cc1cc(N2CCC(C(=O)N3N=CCC3c3cc(F)ccc3F)C3(CC3)C2)ncn1 (racemic) [Compound Z-52-1, 6-(8-(5-(2,5-difluorophenyl)-4,5-dihydro-1H-pyrazole-1-carbonyl)-5-aza-spiro[2.5]oct-5-yl)pyrimidine-4-carbonitrile]  4 nM
2. N#Cc1cc(N2CCC(C(=O)N3CCC(c4cc(F)cc(F)c4)=N3)C3(CC3)C2)ncn1 (racemic) [Compound Z-25, 6-(8-(3-(3,5-difluorophenyl)-4,5-dihydro-1H-pyrazole-1-carbonyl)-5-aza-spiro[2.5]oct-5-yl)pyrimidine-4-carbonitrile]  4 nM
3. Cc1nnc(N2CCC(C(=O)N3N=CCC3c3cc(F)cc(F)c3)C3(CC3)C2)o1 (stereo not shown) [Compound Z-63-2, (5-(3,5-difluorophenyl)-4,5-dihydro-1H-pyrazol-1-yl)(5-(5-methyl-1,3,4-oxadizol-2-yl)-5-aza-spiro[2.5]octane-8-yl) ketone]  21 nM
4. CNC(=O)c1cc(N2CCC(C(=O)N3N=CCC3c3cc(F)cc(F)c3)CC23CC3)ncn1 (stereo not shown) [Compound Z-70-a, 6-(7-(5-(3,5-difluorophenyl)-4,5-dihydro-11H-pyrazole-1-carbonyl)-4-aza-spiro[2.5]oct-4-yl)-N-methylpyrimidine-4-carboxamide]  21 nM
5. COc1nccc(N2C[C@H]3C[C@H](C(=O)N4N=CC[C@@H]4c4ccccc4)C[C@H]3C2)n1 (single isomer, unassigned) [Compound Z-37-2]  22 nM
6. NC(=O)c1cc(N2CCC(C(=O)N3N=CCC3c3cc(F)ccc3F)C3(CC3)C2)ncn1 (racemic) [Compound Z-53-1, 6-(8-(5-(2,5-difluorophenyl)-4,5-dihydro-1H-pyrazole-1-carbonyl)-5-aza-spiro[2.5]oct-5-yl)pyrimidine-4-carboxamide]  26 nM
7. N#Cc1cc(N2CCC(C(=O)N3N=CCC3c3cncc(F)c3)C3(CC3)C2)ncn1 (racemic) [Compound Z-48-1, 6-(8-(5-(5-fluoropyridin-3-yl)-4,5-dihydro-1H-pyrazole-1-carbonyl)-5-aza-spiro[2.5]oct-5-yl)pyrimidine-4-carbonitrile]  30 nM
8. Nc1nc(N2C[C@H]3C[C@@H](C(=O)N4N=CC[C@@H]4c4cc(F)cc(F)c4)C[C@H]3C2)ncc1F (single isomer, unassigned) [Compound Z-23-4]  41 nM
9. N#Cc1cc(N2CCC(C(=O)N3N=CCC3c3cc(F)ccc3F)C3(CC3)C2)ncn1 (racemic) [Compound Z-52-2, 6-(8-(5-(2,5-difluorophenyl)-4,5-dihydro-1H-pyrazole-1-carbonyl)-5-aza-spiro[2.5]oct-5-yl)pyrimidine-4-carbonitrile]  41 nM
10. Cc1nnc(N2CCC(C(=O)N3N=CCC3c3cc(F)cc(F)c3)C3(CC3)C2)o1 (stereo not shown) [Compound Z-61, (5-(3,5-difluorophenyl)-4,5-dihydro-1H-pyrazol-1-yl)(5-(5-methyl-1,3,4-oxadizol-2-yl)-5-aza-spiro[2.5]octane-8-yl) ketone]  53 nM
11. N#Cc1ccnc(N2C[C@H]3C[C@@H](C(=O)N4N=CC[C@@H]4c4cc(F)cc(F)c4)C[C@H]3C2)n1 (single isomer, unassigned) [Compound Z-32-4]  61 nM
12. NC(=O)c1ccnc(N2C[C@@H]3CC(C(=O)N4N=CC[C@@H]4c4cc(F)cc(F)c4)C[C@H]3C2)n1 (single isomer, unassigned) [Compound Z-18-4]  62 nM
13. Nc1nc(N2C[C@H]3C[C@@H](C(=O)N4N=CC[C@@H]4c4ccccc4)C[C@H]3C2)ncc1F (single isomer, unassigned) [Compound Z-39-4]  88 nM
14. N#Cc1cc(N2CCC(C(=O)N3CCC(c4cc(F)cc(F)c4)=N3)C3(CC3)C2)ncn1 (racemic) [Compound Z-26, 6-(8-(3-(3,5-difluorophenyl)-4,5-dihydro-1H-pyrazole-1-carbonyl)-5-aza-spiro[2.5]oct-5-yl)pyrimidine-4-carbonitrile]  244 nM
15. N#Cc1cc(N2CC3CCC(C2)C3C(=O)N2N=CCC2c2ccccc2)ncn1 (single isomer, unassigned) [Compound Z-3, 6-(8-(5-phenyl-4,5-dihydro-1H-pyrazole-1-carbonyl)-3-azabicyclo[3.2.1]oct-3-yl)pyrimidine-4-carbonitrile]  322 nM
16. NC(=O)c1cc(N2CCC(C(=O)N3N=CCC3c3cc(F)ccc3F)C3(CC3)C2)ncn1 (racemic) [Compound Z-53-2, 6-(8-(5-(2,5-difluorophenyl)-4,5-dihydro-1H-pyrazole-1-carbonyl)-5-aza-spiro[2.5]oct-5-yl)pyrimidine-4-carboxamide]  331 nM
17. N#Cc1cc(N2CCC(C(=O)N3N=CCC3c3cncc(F)c3)C3(CC3)C2)ncn1 (racemic) [Compound Z-48-2, 6-(8-(5-(5-fluoropyridin-3-yl)-4,5-dihydro-1H-pyrazole-1-carbonyl)-5-aza-spiro[2.5]oct-5-yl)pyrimidine-4-carbonitrile]  361 nM
18. Cc1nnc(N2CCC(C(=O)N3N=CCC3c3cncc(F)c3)C3(CC3)C2)o1 (stereo not shown) [Compound Z-68, (5-(5-fluoropyridin-3-yl)-4,5-dihydro-1H-pyrazol-1-yl)(5-(5-methyl-1,3,4-oxadizol-2-yl)-5-aza-spiro[2.5]oct-8-yl) methanone]  364 nM
